Values quoted from earlier work as cited in patent US11285134B2, “Presbyopia treatments” (Allergan, Inc., priority 2018, dated 2022).
Where two headings read alike, the source gives them in different places.

Test system: patients with glaucoma
Conditions: 1-week treatment

CC[C@@H]1C(=O)OC[C@@H]1Cc1cncn1C [pilocarpine]
mean percent fall in IOP from baseline (1% dose strength): 17.5% | mean percent fall in IOP from baseline (4% dose strength): 26.8% | mean percent fall in IOP from baseline (8% dose strength): 29.1%
